Results on 19 molecules are retold here after US20240391899A1, “POTENT AND SELECTIVE INHIBITORS OF IRAK4” (Dana-Farber Cancer Institute, Inc., priority 2021, published 2024).

For test [1], the target named is T1, IRAK4 (Homo sapiens, UniProt Q9NWZ3).
T1 construct: purchased ThermoFisher
T1 sequence (Q9NWZ3 1-460): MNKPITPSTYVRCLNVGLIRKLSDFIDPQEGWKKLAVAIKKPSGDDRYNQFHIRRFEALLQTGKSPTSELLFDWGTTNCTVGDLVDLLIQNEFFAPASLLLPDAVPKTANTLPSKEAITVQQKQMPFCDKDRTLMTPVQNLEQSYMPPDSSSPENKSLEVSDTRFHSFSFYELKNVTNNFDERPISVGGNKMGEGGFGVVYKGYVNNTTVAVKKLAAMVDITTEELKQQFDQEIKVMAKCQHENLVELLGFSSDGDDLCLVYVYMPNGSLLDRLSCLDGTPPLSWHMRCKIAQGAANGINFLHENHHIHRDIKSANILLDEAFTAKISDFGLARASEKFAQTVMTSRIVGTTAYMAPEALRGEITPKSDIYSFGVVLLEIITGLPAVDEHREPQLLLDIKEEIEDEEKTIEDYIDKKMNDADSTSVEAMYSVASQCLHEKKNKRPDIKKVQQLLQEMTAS
The test can be described thus: IRAK4 enzymatic assay (Z'-LYTE, ThermoFisher). The class given is biochemical. Particulars: 60 minutes at room temperature. Here is the method:
To measure the IC50 values of compounds herein against IRAK4, a Z′-LYTE assay (ThermoFisher) was used. Briefly, 2.5 μL of different concentrations of the compounds in 1% DMSO were added to 2.4 μL kinase buffer (50 mM HEPES pH 7.5, 0.01% BRIJ-35, 10 mM MgCl2, 1 mM EGTA) in each well of a 384-well plate (Corning Cat. #3676). 5 μL of 2×IRAK4/Ser/Thr 07 mixture (prepared in 50 mM HEPES pH 7.5, 0.01% BRIJ-35, 10 mM MnCl2, 2 mM DTT, and 0.02% NaN3) and 2.5 μL of 4×ATP solution (4×ATP, 50 mM HEPES, pH 7.5, 0.01% BRIJ-35, 10 mM MgCl2, 1 mM EGTA) were added to each well. The plate was shaken for 30 seconds, and then incubated at room temperature for 60 minutes. 5 μL of a 1:100000 dilution of Development Reagent A was added to each well. The plate was shaken for 30 seconds and incubated for 60 minutes at room temperature. The plate was subsequently read on a fluorescence plate reader, and the emissions ratio was calculated to determine the ratio of Ser/Thr 07 phosphorylated by the reaction. Emissions Ratio=Coumarin Emission (443 nm)/Flourescein Emission (520 nm).

In test [2] the target is T2, IRAK1 (Homo sapiens, UniProt P51617).
T2 construct: purchased ThermoFisher
T2 sequence (P51617 whole entry): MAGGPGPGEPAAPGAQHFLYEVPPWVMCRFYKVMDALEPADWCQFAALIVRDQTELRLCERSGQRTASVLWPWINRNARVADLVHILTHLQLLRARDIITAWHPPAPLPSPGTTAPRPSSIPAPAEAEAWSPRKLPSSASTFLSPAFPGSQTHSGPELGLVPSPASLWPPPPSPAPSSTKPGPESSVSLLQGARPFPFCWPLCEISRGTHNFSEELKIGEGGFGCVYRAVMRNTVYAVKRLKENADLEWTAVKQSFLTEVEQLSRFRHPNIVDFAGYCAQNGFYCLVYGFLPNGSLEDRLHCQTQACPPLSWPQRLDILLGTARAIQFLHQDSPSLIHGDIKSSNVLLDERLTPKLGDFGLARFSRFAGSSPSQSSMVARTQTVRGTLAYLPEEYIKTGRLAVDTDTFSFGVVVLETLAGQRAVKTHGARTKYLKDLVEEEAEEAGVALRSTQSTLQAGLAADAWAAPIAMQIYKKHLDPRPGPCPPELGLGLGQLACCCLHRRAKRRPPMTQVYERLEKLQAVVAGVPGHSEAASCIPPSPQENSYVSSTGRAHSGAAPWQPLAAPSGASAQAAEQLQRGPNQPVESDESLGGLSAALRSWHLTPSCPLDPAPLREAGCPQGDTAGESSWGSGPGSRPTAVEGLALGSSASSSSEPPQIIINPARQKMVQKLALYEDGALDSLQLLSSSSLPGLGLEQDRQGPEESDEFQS
The test can be described thus: IRAK1 enzymatic assay (Adapta Universal Kinase Assay, ThermoFisher). Particulars: 60 minutes at room temperature. The class given is biochemical. As to the method: To measure the IC50 values of the compounds herein against IRAK1, the Adapta Universal Kinase Assay (ThermoFisher) was used. Briefly, 100 nL of different concentrations of the compounds in 100% DMSO were added to each well of a 384-well plate (Corning Cat. #4512). 2.4 μL of 30 mM HEPES, 2.5 μL of 4×ATP solution (in water), and 5 μL of 2×IRAK1/Histone H3 (1-20) peptide mixture (prepared in 50 mM HEPES pH 7.5, 0.01% BRIJ-35, 10 mM MgCl2, 1 mM EGTA) were added to each well. The plate was shaken for 30 seconds and centrifuged for 1 minute at 1000×g. The plate was then incubated at room temperature for 60 minutes. 5 μL of Detection Mix was added to each well. The plate was shaken for 30 seconds and centrifuged for 1 minute at 1000×g. The plate was then incubated at room temperature for 60 minutes. The plate was subsequently read on a fluorescence plate reader, and the emissions ratio was calculated to determine the ratio of ATP to ADP. Emissions Ratio=AF647 Emission (665 nm)/Europium Emission (615 nm).

Molecules are shown by their SMILES.

`Cc1ccc(-n2nc(C3CCN(C(C)C)CC3)cc2NC(=O)c2cccc(-c3cn[nH]c3)n2)nc1` [Compound 002, N-(3-(1-isopropylpiperidin-4-yl)-1-(5-methylpyridin-2-yl)-1H-pyrazol-5-yl)-6-(1H-pyrazol-4-yl)picolinamide]: the IC50 amounted to 0.003 µM in test [1] and 0.036 µM in test [2].
On the same counts, the results for `CC(C)N1CCC(c2cc(NC(=O)c3ccccn3)n(-c3ccccn3)n2)CC1` [Compound 010, N-(3-(1-isopropylpiperidin-4-yl)-1-(pyridin-2-yl)-1H-pyrazol-5-yl)picolinamide] are 0.043 µM and 1.1 µM.
On to `Cc1ccc(-n2nc(C3CCN(C(C)C)CC3)cc2NC(=O)c2cccc(-c3cnn(CC(=O)N(C)C)c3)n2)nc1` [Compound 013, 6-(1-(2-(dimethylamino)-2-oxoethyl)-1H-pyrazol-4-yl)-N-(3-(1-isopropylpiperidin-4-yl)-1-(5-methylpyridin-2-yl)-1H-pyrazol-5-yl)picolinamide], for which the IC50 in test [1] worked out at 0.045 µM; in test [2] it was 0.718 µM.
On the same counts, the results for `Cc1ccc(-n2nc(C3CCN(C(C)C)CC3)cc2NC(=O)c2cccc(-c3cnsc3)n2)nc1` [Compound 004, N-(3-(1-isopropylpiperidin-4-yl)-1-(5-methylpyridin-2-yl)-1H-pyrazol-5-yl)-6-(isothiazol-4-yl)picolinamide] are 0.024 µM and 0.372 µM.
On the same counts, the results for `CC(C)N1CCC(c2cc(NC(=O)c3cccc(/C=C/C(N)=O)n3)n(-c3ccccn3)n2)CC1` [Compound 018, (E)-6-(3-amino-3-oxoprop-1-en-1-yl)-N-(3-(1-isopropylpiperidin-4-yl)-1-(pyridin-2-yl)-1H-pyrazol-5-yl)picolinamide] are 0.024 µM and 0.234 µM.
On the same counts, the results for `Cc1ccc(-n2nc(C3CCN(C(C)C)CC3)cc2NC(=O)c2ccccn2)nc1` [Compound 009, N-(3-(1-isopropylpiperidin-4-yl)-1-(5-methylpyridin-2-yl)-1H-pyrazol-5-yl)picolinamide] are 0.055 µM and 1.65 µM.
As to `Cc1ccc(-n2nc(C3CCN(C(C)C)CC3)cc2NC(=O)c2cccc(-c3ccn[nH]3)n2)nc1` [Compound 012, N-(3-(1-isopropylpiperidin-4-yl)-1-(5-methylpyridin-2-yl)-1H-pyrazol-5-yl)-6-(1H-pyrazol-5-yl)picolinamide], the IC50 worked out at 0.003 µM in test [1] and 0.007 µM in test [2].
The matching figures for `Cc1ccc(-n2nc(C3CCN(C(C)C)CC3)cc2NC(=O)c2cccc(-c3cnoc3)n2)nc1` [Compound 006, N-(3-(1-isopropylpiperidin-4-yl)-1-(5-methylpyridin-2-yl)-1H-pyrazol-5-yl)-6-(isoxazol-4-yl)picolinamide]: 0.006 µM and 0.015 µM.
The matching figures for `CNC(=O)Cn1cc(-c2cccc(C(=O)Nc3cc(C4CCN(C(C)C)CC4)nn3-c3ccc(C)cn3)n2)cn1` [Compound 014, N-(3-(1-isopropylpiperidin-4-yl)-1-(5-methylpyridin-2-yl)-1H-pyrazol-5-yl)-6-(1-(2-(methylamino)-2-oxoethyl)-1H-pyrazol-4-yl)picolinamide]: 0.036 µM and 0.656 µM.
The matching figures for `CC(C)N1CCC(c2cc(NC(=O)c3cccc(-c4cnoc4)n3)n(-c3ccccn3)n2)CC1` [Compound 007, N-(3-(1-isopropylpiperidin-4-yl)-1-(pyridin-2-yl)-1H-pyrazol-5-yl)-6-(isoxazol-4-yl)picolinamide]: 0.031 µM and 0.317 µM.
Turning to `CN1CCC(c2cc(NC(=O)c3cccc(-c4ccn[nH]4)n3)n(-c3ccccn3)n2)CC1` [Compound 001, N-(3-(1-Methylpiperidin-4-yl)-1-(pyridin-2-yl)-1H-pyrazol-5-yl)-6-(1H-pyrazol-5-yl)picolinamide], the IC50 was found to be 0.004 µM in test [1] and 0.008 µM in test [2].
Turning to `Cc1ccc(-n2nc(C3CCN(C)CC3)cc2NC(=O)c2ccccn2)nc1` [Compound 011, N-(3-(1-methylpiperidin-4-yl)-1-(5-methylpyridin-2-yl)-1H-pyrazol-5-yl)picolinamide], the IC50 in test [1] was found to be 0.17 µM; in test [2], 0.835 µM.
For `CC(C)N1CCC(c2cc(NC(=O)c3cccc(CCC(N)=O)n3)n(-c3ccccn3)n2)CC1` [Compound 019, 6-(3-amino-3-oxopropyl)-N-(3-(1-isopropylpiperidin-4-yl)-1-(pyridin-2-yl)-1H-pyrazol-5-yl)picolinamide], the IC50 in test [1] was 0.047 µM; in test [2], 0.242 µM.
The matching figures for `Cc1ccc(-n2nc(C3CCN(C4COC4)CC3)cc2NC(=O)c2ccccn2)nc1` [Compound 008, N-(1-(5-methylpyridin-2-yl)-3-(1-(oxetan-3-yl)piperidin-4-yl)-1H-pyrazol-5-yl)picolinamide]: 0.148 µM and 1.35 µM.
On the same counts, the results for `CC(C)N1CCC(c2cc(NC(=O)c3cccc(-c4cnn(CC(N)=O)c4)n3)n(-c3ccccn3)n2)CC1` [Compound 016, 6-(1-(2-amino-2-oxoethyl)-1H-pyrazol-4-yl)-N-(3-(1-isopropylpiperidin-4-yl)-1-(pyridin-2-yl)-1H-pyrazol-5-yl)picolinamide] are 0.039 µM and 0.828 µM.
The matching figures for `Cc1ccc(-n2nc(C3CCN(C(C)C)CC3)cc2NC(=O)c2cccc(C#N)n2)nc1` [Compound 017, 6-cyano-N-(3-(1-isopropylpiperidin-4-yl)-1-(5-methylpyridin-2-yl)-1H-pyrazol-5-yl)picolinamide]: 0.009 µM and 0.09 µM.
As to `CC(C)N1CCC(c2cc(NC(=O)c3cccc(-c4cnsc4)n3)n(-c3ccccn3)n2)CC1` [Compound 005, N-(3-(1-isopropylpiperidin-4-yl)-1-(pyridin-2-yl)-1H-pyrazol-5-yl)-6-(isothiazol-4-yl)picolinamide], the IC50 in test [1] came out at 0.037 µM; in test [2], 0.183 µM.
On the same counts, the results for `CC(C)N1CCC(c2cc(NC(=O)c3cccc(N4CCNCC4)n3)n(-c3ccccn3)n2)CC1` [Compound 020, N-(3-(1-isopropylpiperidin-4-yl)-1-(pyridin-2-yl)-1H-pyrazol-5-yl)-6-(piperazin-1-yl)picolinamide] are 0.561 µM and 10 µM.
The matching figures for `CC(C)N1CCC(c2cc(NC(=O)c3cccc(-c4cn[nH]c4)n3)n(-c3ccccn3)n2)CC1` [Compound 003, N-(3-(1-isopropylpiperidin-4-yl)-1-(pyridin-2-yl)-1H-pyrazol-5-yl)-6-(1H-pyrazol-4-yl)picolinamide]: 0.006 µM and 0.066 µM.
